{"source": "patent US9681669B2", "about": "(priority 2012, dated 2017)", "key": {"P. infestans": {"tested_on": "P. infestans", "format": "in vivo, Phytophthora infestans", "details": "BABA 0.3 g/l; Desiree, Bintje, Ovatio; 6 dpi"}, "[1]": {"tested_on": "Pathogenesis-related protein (PR-1)", "format": "in vivo, Solanum tuberosum", "details": "BABA 0.3 g/l; all three genotypes"}}, "note": "Like-named read-outs stand apart in the source and are kept apart here."}
{"smiles": "CC(N)CC(=O)O", "note": "(stereo not drawn) [BABA, β-aminobutyric acid]", "values": [{"measurement": "effect on lesion size, SBE compared with BABA-treated plants", "setting": "P. infestans", "value": "not significantly different"}, {"measurement": "necrotic dots or lesions on treated plants", "setting": "Bintje, BABA treatment (0.3 g/l)", "value": "no such lesions were observed"}, {"measurement": "necrotic dots or lesions on treated plants", "setting": "Desiree, two days after BABA treatment (0.3 g/l)", "value": "Small necrotic dots or lesions"}, {"measurement": "PR-1 protein induction compared with SBE", "setting": "[1]", "value": "stronger"}]}
